Results reported in patent publication US20060257388A1, “Drug delivery systems for stabilized formulations of alpha adrenergic receptor antagonists and the uses thereof” (priority 2005, published 2006).
Structures can show the parent of a compound that is named as a salt.

Tests used:
[1] = Narrow-range pH-stability profiling at 60° C. (HPLC); format: physicochemical; conditions: 50 mM sodium phosphate, FIG. 2
Experimental: (§1) The drug is monitored at a detection wavelength of 232 nm.
All samples were stored in the dark. […] All samples were analyzed without dilution.
The phosphate buffers were prepared as previously described. The samples were analyzed by HPLC for phentolamine concentration and purity at an initial time point and after 2, 7 and 14 days of storage at 60° C. Measurement of sample pH was done after HPLC analysis.
In order to precisely define the most favorable pH, a stronger stressing condition was needed to generate a greater extent of degradation in the lower pH region. For this study, the incubation condition was shifted from 40° C. to 60° C. Since the extent of degradation after fourteen (14) days was still less than twenty percent (20%) in most samples, zero-order rate kinetics was used for the degradation curves (concentration versus time). The calculated rate constant was plotted against pH to provide the narrow-range pH-stability profile.

[2] = Effect of buffer concentration on stability, sodium acetate pH 3.5, 60° C. (HPLC, pH); format: physicochemical
Experimental: as §1
Tightly sealed glass vials containing the test solutions were placed in an oven at 40° C. or 60° C. All samples were stored in the dark. Aliquots were removed at designated time points for HPLC analysis and pH measurement. All samples were analyzed without dilution.
In conjunction with HPLC analysis, pH was measured. The measurement was performed using the same samples as used for the HPLC analysis. The pH meter was calibrated using pH 4.00 and 7.00 buffer standards prior to each measurement.
Samples were incubated at 60° C. with scheduled testing performed at day 0, 2, 7, and 14. The various buffer concentrations were prepared by diluting the 50 mM buffer with water and re-examining the pH value to determine if the pH 3.5 was constant. Measurements of pH were performed after HPLC analysis of the samples.

[3] = Effect of additives on stability, 60° C. (HPLC); format: physicochemical; conditions: for Phentolamine Concentration: 10 mM Sodium Acetate, pH 3.5, 60° C.
Excerpt: as §1
The additives in this study are selected from five groups of injectable excipients namely, tonicity modifiers (NaCl and d-mannitol), metal chelators (EDTA), antioxidants (sodium metabisulfite), complexing agents α-cyclodextrin and niacinamide) and solvents (glycerol and polypropylene glycol). A tonicity modifier is required for adjusting the phentolamine mesylate solution to isotonic. […] Complexing agents were applied in the hope that a possible formation of an inclusion complex (by α-cyclodextrin) or stacking complex (by niacinamide) with phentolamine would modify the rate of hydrolytic degradation of the drug substance. Solvents were added to reduce the dielectric constant of the vehicle and were intended to slow the rate of degradation due to solvent polarity.
The pH value of the solutions was readjusted to pH 3.5, as required. The 25% glycerol (25 g in 100 ml total volume with water) and 25% polypropylene glycol (25 g in 100 ml total volume with water) solutions had their buffer strength adjusted by addition of acetic acid followed by addition of 2 N NaOH for pH adjustment to pH 3.5 followed by addition of the drug to 0.1 mg/ml.
All samples were placed in 10 ml glass serum vials, stoppered with rubber closures with an inert coating (Dalkyo Flurotec by WEST Pharmaceutical), and sealed with flip-top caps after sampling. Vials were placed at 60° C. after the weights were recorded.
Sampling occurred at the initial time point and on days 2, 7, and 14. Vials were weighed, sampled, sealed, re-weighed, and replaced under the selected storage condition until testing at the subsequent time point. Records indicate no significant weight loss during storage.

healthy adult volunteers = assay: Reversal of soft-tissue anesthesia after inferior alveolar nerve block, proof-of-principle trial (Example 3); format: in vivo, human; conditions: 0.2 mg in 1.8 ml
Experimental: The objective of this proof-of-principle trial was to evaluate the feasibility of reversing soft-tissue anesthesia by pharmacologically blocking the effects of epinephrine. […] Subjects self-evaluated the return of normal sensation in their lip, chin, tongue, nose, and teeth by palpations at 5-minute intervals starting at 5 minutes before the study drug injection and continuing for approximately 4-5 hours. To avoid biased responding, subjects were told that they could not leave the clinic for 8 hours after the last injection. Responses for soft tissues were categorized as (1) numb (no feeling), (2) feeling of pins and needles, or (3) normal sensation. Responses for teeth were (1) numb (no feeling) or (2) normal sensation. Safety was evaluated through reports of adverse events, measurement of vital signs and two-lead electrocardiograms before, during, and after the injections of anesthetic and study drug, and through pain assessments using visual analog scales.

[4] = test system: healthy adult volunteer subjects; assay: Dose range study, reversal of local anesthesia after mandibular nerve block (Example 4); format: in vivo, human
Excerpt: The objectives of this study were to evaluate the safety and efficacy of a range of doses of phentolamine in reversing local anesthesia after a mandibular nerve block. […] Subjects palpated their lower lip, chin, tongue, and teeth every five minutes for the next five hours after injections.

[5] = test system: healthy adult volunteer subjects; assay: Dose range study, reversal of local anesthesia after maxillary infiltration (Example 5); format: in vivo, human
Experimental: The objectives of this study were to evaluate the safety and efficacy of a range of doses of phentolamine in reversing local anesthesia after a maxillary infiltration. Four groups of eight healthy adult volunteer subjects were given an infiltration of the lateral incisor using one 1.8 ml cartridge of lidocaine 2% with epinephrine 1:100,000. […] Subjects palpated their upper lip, nose, and teeth every five minutes for the next five hours after injections.

patients [6] = conditions: 0.5-1.5 mg, patients pretreated with lignocaine admixed with epinephrine; cited from earlier work
patients [7] = conditions: systemic doses, package insert; cited from earlier work
human = conditions: solution containing 0.05 mg/ml; cited from earlier work
[8] = 0.02 mg, 0.06 mg, 0.4 mg in 1.8 ml
[9] = 0.02 mg, 0.08 mg, 0.4 mg in 1.8 ml

pH at which phentolamine was most stable [1]: 3.5 | Phentolamine Concentration ([2]; 50 mM Sodium Acetate pH 3.5, 60° C., Day 2): 101 µg/mL | Phentolamine Concentration ([3]; Additive Glycerol, 25% w/v, Day 0): 126 µg/mL | Phentolamine Concentration ([3]; Additive Glycerol, 25% w/v, Day 2): 123 µg/mL | Phentolamine Concentration ([3]; Additive Glycerol, 25% w/v, Day 14): 115 µg/mL | Phentolamine Concentration ([3]; Additive Polypropylene glycol, 25% w/v, Day 0): 118 µg/mL | Phentolamine Concentration ([3]; Additive Polypropylene glycol, 25% w/v, Day 2): 121 µg/mL | Phentolamine Concentration ([3]; Additive Polypropylene glycol, 25% w/v, Day 7): 113 µg/mL | Phentolamine Concentration ([3]; Additive Sodium metabisulfite, 0.5 mg/ml, Day 2): 101 µg/mL | Phentolamine Concentration ([3]; Additive α-Cyclodextrin, 50 mg/ml, Day 0): 102 µg/mL
Compound: Cc1ccc(N(CC2=NCCN2)c2cccc(O)c2)cc1 [Phentolamine Mesylate]
rate of degradation versus un-buffered control (in words) ([2]; 5, 10 and 50 mM sodium acetate): comparable and was an improvement over the un-buffered control | impact of additives on stability (in words) ([3]; d-Mannitol and disodium EDTA): improve stability based on the rate constant or to exhibit no negative impact based on purity values | adverse effects (healthy adult volunteers): Adverse effects were few and no differences were noted between the active and placebo groups | electrocardiogram (healthy adult volunteers): no abnormalities in the electrocardiogram | duration of anesthesia versus saline (in words) (healthy adult volunteers; 60 minutes after inferior alveolar nerve block with 2% lidocaine, 1:100,000 epinephrine, lip, chin, tongue, nose, teeth): significantly (p<0.01) reduced the duration of anesthesia in each tissue | adverse events [4, 8]: Adverse events were few and no differences were noted between the active and placebo groups | electrocardiogram [4, 8]: no abnormalities in the electrocardiogram | duration of anesthesia versus saline placebo (in words) ([4]; all doses tested (0.02 mg, 0.06 mg, 0.4 mg in 1.8 ml), 60 minutes after inferior alveolar nerve block, lower lip, chin, tongue, teeth): significantly (p<0.05) reduced the duration of anesthesia in each measured tissue | adverse events [5, 9]: Adverse events were few and no differences were noted between the active and placebo groups | electrocardiogram [5, 9]: no abnormalities in the electrocardiogram | duration of anesthesia versus saline placebo (in words) ([5]; all doses tested (0.02 mg, 0.08 mg, 0.4 mg in 1.8 ml), 40 minutes after lateral incisor infiltration, upper lip, nose, teeth): significantly (p<0.01) reduced the duration of anesthesia in each measured tissue | duration of anesthesia (in words) (patients [6]): reduction in the duration of anesthesia with increasing amounts | side effect warning (patients [7]): Myocardial infarction, cerebrovascular spasm, and cerebrovascular occlusion have been reported | reversal of local anesthetic effect (in words) (human): rapidly reverse the effect of a local anesthetic
